Experimental data reported in patent US10537611B2, “Methods of treating lung cancer” (Five Prime Therapeutics, Inc., priority 2011, dated 2020).

What was measured:
[1] = test system: Colo205 xenograft model; test: Colo205 xenograft tumor growth inhibition; type: in vivo, mouse; conditions: Colon Colo205; IV 5 mg/kg BIW; non-amplified; P < 0.001
Protocol: (§1) Percentage tumor growth inhibition by FGFR1-ECD.339-Fc was determined by area-under-the-curve (AUC) analysis of xenograft growth curves treated with FGFR1-ECD.339-Fc compared to albumin control. […] The difference in FGFR1-ECD.339-Fc-mediated xenograft inhibition between FGFR1 gene amplified and non-amplified lung cancer xenograft models was statistically significant (P=0.0333).
(§2) Also shown in Table 5 are the dosing schedule for FGFR1-ECD.339-Fc in a mouse xenograft model, the percent tumor growth inhibition (TGI (%)) and the statistical significance of the tumor growth inhibition (P Value), as well as whether the FGFR1 gene is amplified in the cell line.
(§3) An exemplary xenograft experiment is as follows. For Caki-1 and MSTO-211H, five million cells were implanted subcutaneously over the right flank of SCID mice (N=10 per group). […] Representative tumor growth curves are shown for a renal cancer, Caki-1, (A), and mesothelioma, MSTO-211H, (B) xenograft cancer model. […] In the MSTO-211H mesothelioma model, FGFR1-ECD.339-Fc administration reduced tumor growth (FIG. 16b) by 64% (P<0.0001).

[2] = test system: lung cancer cell lines without FGFR1 gene amplification; test: Tritiated thymidine incorporation, non-amplified lung cancer cell lines (average); type: cell-based, human; conditions: across all FBS concentrations, vs control ECD-Fc
Protocol: To determine the impact of FGFR1-ECD.339-Fc on lung cancer cell lines in tissue culture, cells were plated in a Microtest™ 96-well tissue culture plate (Becton Dickenson, Franklin Lakes, N.J.) at a density of 5×10^3 cells/well in medium containing 10%, 1% or 0.1% FBS in the presence or absence of 15 μg/ml FGFR1-ECD.339-Fc (SEQ ID NO: 6) or an unrelated ECD-Fc fusion protein (as a negative control). Plates were incubated at 37° C. at 5% CO2 for 4 days and then assayed to determine the impact of FGFR1-ECD.339-Fc on cell number and proliferation.
To determine the impact of FGFR1-ECD.339-Fc on cell proliferation the tritiated thymidine ([3H]-TdR) incorporation assay was employed. […] After 16-h exposure, tritiated thymidine incorporation was assessed. […] Thymidine incorporation was determined as counts per minute (cpm) on a Topcount NXT (PerkinElmer) scintillation counter. Results were expressed as cpm/well.
The impact of FGFR1-ECD.339-Fc on cell proliferation as assessed by tritiated thymidine incorporation was also compared between FGFR1 gene amplified and non-amplified lung cancer cell lines (FIG. 4). An average percent reduction in cell proliferation with FGFR1-ECD.339-Fc addition was determined across all FBS concentrations examined for each FGFR1 gene amplified cell line and the panel of non-FGFR1 gene amplified cell lines indicated above. […]

[3] = test system: MDA-MB-231 xenograft model; test: MDA-MB-231 xenograft tumor growth inhibition; type: in vivo, mouse; conditions: Breast MDA-MB-231; IP 15 mg/kg BIW; non-amplified; P ns
Protocol: as §1, §2, §3

[4] = test system: A498 xenograft model; test: A498 xenograft tumor growth inhibition; type: in vivo, mouse; conditions: Renal A498; IP 15 mg/kg BIW; non-amplified; P ns
Protocol: as §1, §2, §3

[5] = test system: Colo201 xenograft model; test: Colo201 xenograft tumor growth inhibition; type: in vivo, mouse; conditions: Colon Colo201; IP 15 mg/kg BIW; non-amplified; P ns
Protocol: as §1, §2, §3

[6] = test system: NCI-H522 xenograft model; test: NCI-H522 xenograft tumor growth inhibition; type: in vivo, mouse; conditions: Lung NCI-H522, IP 10 mg/kg BIW, non-amplified, P < 0.05
Source text: The impact of FGFR1-ECD.339-Fc on tumor growth was compared between FGFR1 gene amplified and non-amplified lung cancer xenograft models. Lung cell lines without FGFR1-amplification examined in this experiment were as follows: A549, NCI-H460, NCI-H226, NCI-H2126, NCI-H441, NCI-H358, NCI-H522 and Colo699. Non-amplified cell lines were purchased from ATTC (Manassas, Va.) and cultured according to supplier instructions. Lung cancer xenograft models using non-FGFR1 gene amplified cell lines were carried out substantially as described in Example 2.
as §1

Substance: FGFR1-ECD.339-Fc: human FGFR1 extracellular domain ending at amino acid 339 fused to an Fc; SEQ ID NO: 6 (mature form), SEQ ID NO: 5 with signal peptide
- TGI (%) [1]: 38%
- average decrease in CPM (tritiated thymidine incorporation) [2]: 17.0%
- TGI (%) [3]: 0%
- TGI (%) [4]: 7%
- TGI (%) [5]: 0%
- TGI (%) [6]: 42%
